Laboratory results taken from PubChem BioAssay AID1963844 (Molecular Pharmacology Branch, DTP, NCI, 2024).

Test system: 422866-222-R5-J1-PDC complex spheroid viability
Assay: Anticancer human tumor 422866-222-R5-J1-PDC patient-derived pancreatic adenocarcinoma cell line growth inhibition [POLQ]
Conditions: for IC50: curve of first compound; for viability, T/C: stronger effect = lower value
Summary of the method: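 Three-cell-type spheroids modelling solid tumor plus stroma served as the readout system; POL inhibitors were tested individually and in combination, concentration ranges set by clinical Cmax where known.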

[1] = second compound 0.0316 µM, first compound 0.0316 µM
[2] = second compound 0.0316 µM, first compound 0.1 µM
[3] = second compound 0.0316 µM, first compound 0.316 µM
[4] = second compound 0.0316 µM, first compound 1 µM
[5] = second compound 0.0316 µM, first compound 3.16 µM
[6] = second compound 0.0316 µM, first compound 10 µM
[7] = second compound 0.1 µM, first compound 0.0316 µM
[8] = second compound 0.1 µM, first compound 0.1 µM
[9] = second compound 0.1 µM, first compound 0.316 µM
[10] = second compound 0.1 µM, first compound 1 µM
[11] = second compound 0.1 µM, first compound 3.16 µM
[12] = second compound 0.1 µM, first compound 10 µM
[13] = second compound 0.316 µM, first compound 0.0316 µM
[14] = second compound 0.316 µM, first compound 0.1 µM
[15] = second compound 0.316 µM, first compound 0.316 µM
[16] = second compound 0.316 µM, first compound 1 µM
[17] = second compound 0.316 µM, first compound 3.16 µM
[18] = second compound 0.316 µM, first compound 10 µM
[19] = second compound 1 µM, first compound 0.0316 µM
[20] = second compound 1 µM, first compound 0.1 µM
[21] = second compound 1 µM, first compound 0.316 µM
[22] = second compound 1 µM, first compound 1 µM
[23] = second compound 1 µM, first compound 3.16 µM
[24] = second compound 1 µM, first compound 10 µM
[25] = second compound 3.16 µM, first compound 0.0316 µM
[26] = second compound 3.16 µM, first compound 0.1 µM
[27] = second compound 3.16 µM, first compound 0.316 µM
[28] = second compound 3.16 µM, first compound 1 µM
[29] = second compound 3.16 µM, first compound 3.16 µM
[30] = second compound 3.16 µM, first compound 10 µM
[31] = second compound 10 µM, first compound 0.0316 µM
[32] = second compound 10 µM, first compound 0.1 µM
[33] = second compound 10 µM, first compound 0.316 µM
[34] = second compound 10 µM, first compound 1 µM
[35] = second compound 10 µM, first compound 3.16 µM
[36] = second compound 10 µM, first compound 10 µM
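Note: spheroids exposed to compounds for one week before readout.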
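Throughout, for viability, T/C: percent of DMSO vehicle wells luminescence so 100% = untreated viability.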

## C#Cc1c(F)ccc2cc(O)cc(-c3ncc4c(N5CC6CCC(C5)N6)nc(OCC56CCCN5CC(F)C6)nc4c3F)c12 (stereo not drawn) + Cc1cccc(N(C)C(=O)C2C(O)CCN2c2nc(C)cc(C(F)(F)F)c2C#N)c1
Second compound 0.0316 µM
  IC50: 758 nM
Second compound 0.1 µM
  IC50: 1090 nM
Second compound 0.316 µM
  IC50: 762 nM
Second compound 1 µM
  IC50: 712 nM
Second compound 3.16 µM
  IC50: 480 nM
Second compound 10 µM
  IC50: 465 nM
[1]
  viability, T/C: 104%
[2]
  viability, T/C: 79.8%
[3]
  viability, T/C: 65.2%
[4]
  viability, T/C: 45.5%
[5]
  viability, T/C: 33%
[6]
  viability, T/C: 28.7%
[7]
  viability, T/C: 92.1%
[8]
  viability, T/C: 87.2%
[9]
  viability, T/C: 65.7%
[10]
  viability, T/C: 54.6%
[11]
  viability, T/C: 33.3%
[12]
  viability, T/C: 25.9%
[13]
  viability, T/C: 102%
[14]
  viability, T/C: 80%
[15]
  viability, T/C: 67.6%
[16]
  viability, T/C: 46%
[17]
  viability, T/C: 29.3%
[18]
  viability, T/C: 29.1%
[19]
  viability, T/C: 95.8%
[20]
  viability, T/C: 96.9%
[21]
  viability, T/C: 68.1%
[22]
  viability, T/C: 43.7%
[23]
  viability, T/C: 33.5%
[24]
  viability, T/C: 32%
[25]
  viability, T/C: 92.8%
[26]
  viability, T/C: 74.4%
[27]
  viability, T/C: 57%
[28]
  viability, T/C: 40.8%
[29]
  viability, T/C: 30.3%
[30]
  viability, T/C: 33.9%
[31]
  viability, T/C: 84.3%
[32]
  viability, T/C: 69.2%
[33]
  viability, T/C: 56.1%
[34]
  viability, T/C: 39.9%
[35]
  viability, T/C: 32.3%
[36]
  viability, T/C: 27.6%

## CC(=O)O[C@H]1C(=O)[C@@]2(C)[C@H]([C@H](OC(=O)c3ccccc3)[C@]3(O)C[C@H](OC(=O)[C@H](O)[C@@H](NC(=O)c4ccccc4)c4ccccc4)C(C)=C1C3(C)C)[C@]1(OC(C)=O)CO[C@@H]1C[C@@H]2O + Nc1ccc(C#CCN(C(=O)Cc2ncc(C(F)(F)F)cc2C(F)(F)F)c2ccc(F)cc2)nn1
Second compound 0.0316 µM
  IC50: > 3000 nM
Second compound 0.1 µM
  IC50: > 3000 nM
Second compound 0.316 µM
  IC50: < 9.49 nM
Second compound 1 µM
  IC50: > 3000 nM
Second compound 3.16 µM
  IC50: < 9.49 nM
Second compound 10 µM
  IC50: > 3000 nM
Second compound 0.0316 µM, first compound 0.00949 µM
  viability, T/C: 60.5%
Second compound 0.0316 µM, first compound 0.03 µM
  viability, T/C: 56%
Second compound 0.0316 µM, first compound 0.0949 µM
  viability, T/C: 48.5%
Second compound 0.0316 µM, first compound 0.3 µM
  viability, T/C: 51.8%
Second compound 0.0316 µM, first compound 0.949 µM
  viability, T/C: 61.9%
Second compound 0.0316 µM, first compound 3 µM
  viability, T/C: 63.6%
Second compound 0.1 µM, first compound 0.00949 µM
  viability, T/C: 56.8%
Second compound 0.1 µM, first compound 0.03 µM
  viability, T/C: 58.3%
Second compound 0.1 µM, first compound 0.0949 µM
  viability, T/C: 53.6%
Second compound 0.1 µM, first compound 0.3 µM
  viability, T/C: 46.4%
Second compound 0.1 µM, first compound 0.949 µM
  viability, T/C: 53%
Second compound 0.1 µM, first compound 3 µM
  viability, T/C: 65.4%
Second compound 0.316 µM, first compound 0.00949 µM
  viability, T/C: 53.3%
Second compound 0.316 µM, first compound 0.03 µM
  viability, T/C: 43.9%
Second compound 0.316 µM, first compound 0.0949 µM
  viability, T/C: 51.4%
Second compound 0.316 µM, first compound 0.3 µM
  viability, T/C: 53.4%
Second compound 0.316 µM, first compound 0.949 µM
  viability, T/C: 57%
Second compound 0.316 µM, first compound 3 µM
  viability, T/C: 69.5%
Second compound 1 µM, first compound 0.00949 µM
  viability, T/C: 59.8%
Second compound 1 µM, first compound 0.03 µM
  viability, T/C: 46.4%
Second compound 1 µM, first compound 0.0949 µM
  viability, T/C: 50.6%
Second compound 1 µM, first compound 0.3 µM
  viability, T/C: 51.9%
Second compound 1 µM, first compound 0.949 µM
  viability, T/C: 56.8%
Second compound 1 µM, first compound 3 µM
  viability, T/C: 65.7%
Second compound 3.16 µM, first compound 0.00949 µM
  viability, T/C: 56.1%
Second compound 3.16 µM, first compound 0.03 µM
  viability, T/C: 46.7%
Second compound 3.16 µM, first compound 0.0949 µM
  viability, T/C: 46.4%
Second compound 3.16 µM, first compound 0.3 µM
  viability, T/C: 47.8%
Second compound 3.16 µM, first compound 0.949 µM
  viability, T/C: 74.8%
Second compound 3.16 µM, first compound 3 µM
  viability, T/C: 66.1%
Second compound 10 µM, first compound 0.00949 µM
  viability, T/C: 55.3%
Second compound 10 µM, first compound 0.03 µM
  viability, T/C: 55.8%
Second compound 10 µM, first compound 0.0949 µM
  viability, T/C: 54%
Second compound 10 µM, first compound 0.3 µM
  viability, T/C: 65.8%
Second compound 10 µM, first compound 0.949 µM
  viability, T/C: 52.6%
Second compound 10 µM, first compound 3 µM
  viability, T/C: 75%

## CC1COCCN1c1cc(C2(S(C)(=N)=O)CC2)nc(-c2ccnc3[nH]ccc23)n1 (stereo not drawn) + COC1C(OC(N)=O)C(O)C(Oc2ccc3c(O)c(NC(=O)c4ccc(O)c(CC=C(C)C)c4)c(=O)oc3c2C)OC1(C)C
Second compound 0.0316 µM
  IC50: 2670 nM
Second compound 0.1 µM
  IC50: 2910 nM
Second compound 0.316 µM
  IC50: 2830 nM
Second compound 1 µM
  IC50: 2940 nM
Second compound 3.16 µM
  IC50: 2560 nM
Second compound 10 µM
  IC50: 4120 nM
[1]
  viability, T/C: 102%
[2]
  viability, T/C: 111%
[3]
  viability, T/C: 88.4%
[4]
  viability, T/C: 75.6%
[5]
  viability, T/C: 43.9%
[6]
  viability, T/C: 34.1%
[7]
  viability, T/C: 104%
[8]
  viability, T/C: 103%
[9]
  viability, T/C: 91.6%
[10]
  viability, T/C: 75.4%
[11]
  viability, T/C: 46.6%
[12]
  viability, T/C: 34.8%
[13]
  viability, T/C: 95.8%
[14]
  viability, T/C: 91%
[15]
  viability, T/C: 92.5%
[16]
  viability, T/C: 71.8%
[17]
  viability, T/C: 48%
[18]
  viability, T/C: 44.1%
[19]
  viability, T/C: 91.3%
[20]
  viability, T/C: 97.7%
[21]
  viability, T/C: 101%
[22]
  viability, T/C: 69.4%
[23]
  viability, T/C: 54.9%
[24]
  viability, T/C: 39.8%
[25]
  viability, T/C: 107%
[26]
  viability, T/C: 99%
[27]
  viability, T/C: 104%
[28]
  viability, T/C: 77.7%
[29]
  viability, T/C: 44.4%
[30]
  viability, T/C: 39.8%
[31]
  viability, T/C: 97.1%
[32]
  viability, T/C: 99.5%
[33]
  viability, T/C: 112%
[34]
  viability, T/C: 75.5%
[35]
  viability, T/C: 58.7%
[36]
  viability, T/C: 33%

## O=C(c1cc(Cc2n[nH]c(=O)c3ccccc23)ccc1F)N1CCN(C(=O)C2CC2)CC1 + COC1C(OC(N)=O)C(O)C(Oc2ccc3c(O)c(NC(=O)c4ccc(O)c(CC=C(C)C)c4)c(=O)oc3c2C)OC1(C)C
Second compound 0.0316 µM
  IC50: < 31.6 nM
Second compound 0.1 µM
  IC50: < 31.6 nM
Second compound 0.316 µM
  IC50: < 31.6 nM
Second compound 1 µM
  IC50: < 31.6 nM
Second compound 3.16 µM
  IC50: < 31.6 nM
Second compound 10 µM
  IC50: < 31.6 nM
[1]
  viability, T/C: 40.5%
[2]
  viability, T/C: 40.1%
[3]
  viability, T/C: 42.3%
[4]
  viability, T/C: 38.2%
[5]
  viability, T/C: 34%
[6]
  viability, T/C: 27.5%
[7]
  viability, T/C: 40.1%
[8]
  viability, T/C: 42.5%
[9]
  viability, T/C: 41.2%
[10]
  viability, T/C: 35.4%
[11]
  viability, T/C: 36.4%
[12]
  viability, T/C: 26.3%
[13]
  viability, T/C: 43.5%
[14]
  viability, T/C: 35.9%
[15]
  viability, T/C: 35.7%
[16]
  viability, T/C: 37.9%
[17]
  viability, T/C: 31%
[18]
  viability, T/C: 27.5%
[19]
  viability, T/C: 35.9%
[20]
  viability, T/C: 32%
[21]
  viability, T/C: 37.1%
[22]
  viability, T/C: 37.4%
[23]
  viability, T/C: 27.4%
[24]
  viability, T/C: 24.5%
[25]
  viability, T/C: 39.9%
[26]
  viability, T/C: 34.6%
[27]
  viability, T/C: 38.4%
[28]
  viability, T/C: 36.7%
[29]
  viability, T/C: 33.7%
[30]
  viability, T/C: 28.3%
[31]
  viability, T/C: 38.9%
[32]
  viability, T/C: 30.9%
[33]
  viability, T/C: 35.7%
[34]
  viability, T/C: 32.9%
[35]
  viability, T/C: 29.3%
[36]
  viability, T/C: 27.8%
